{"source": "patent US20150306107A1", "about": "“SAA Derivative Compound Restores eNOS And Inhibits Oxidative Stress-Induced A Diseases In Hypoxia” (JANSFAT BIOTECHNOLOGY CO., LTD., priority 2014, published 2015)", "key": {"ROCK II": {"test_system": "ROCK II", "experiment": "Western blotting of ROCK II in lung tissue after long-term hypoxia", "assay_type": "in vivo, rat", "settings": "hypoxia 21 days; hypoxia 144.7±12.6%"}, "PKG": {"test_system": "PKG", "experiment": "Western blotting of PKG in lung tissue after long-term hypoxia", "assay_type": "in vivo, rat", "settings": "hypoxia 21 days", "protocol": "Whole right lung tissues of hypoxia-treated and untreated rats were isolated and cut into small strips and placed into an extraction buffer (Tris 10 mM, pH 7.0, NaCl 140 mM, PMSF 2 mM, DTT 5 mM, NP-40 0.5%, pepstatin A 0.05 mM and leupeptin 0.2 mM) for protein extraction, and then centrifuged at 12,500 g for 30 min. To measure the expression levels of the proteins, the total proteins were extracted and Western blotting analysis was performed as described previously (Bivalacqua T J, et al., 2013, TJ PLoSONE 8: e68028. doi:10.1371/journal. pone.0068028). Briefly, the protein extract was boiled to a ratio of 4:1 with a sample buffer (Tris 100 mM, pH 6.8, glycerol 20%, SDS 4% and bromophenol blue 0.2%). Electrophoresis was performed using 10% SDS-polyacrylamide gel (2 hr, 100 V, 40 mA, […] protein per lane). Separated proteins were transferred to PVDF membranes treated with 5% fat-free milk powder to block the nonspecific IgGs (90 min, 100 V) and incubated for one hour with a specific protein antibody. The blot was then incubated with anti-mouse or anti-goat IgG linked to alkaline phosphatase (1:1000) for 1 hr. Immunoreactive bands were visualized using horseradish peroxidase-conjugated secondary antibodies and subsequent electrochemiluminescence (ECL) detection (GE Healthcare Bio-Sciences Corp., Piscataway, N.J., U.S.A.). […]"}, "VEGF": {"test_system": "VEGF", "experiment": "Western blotting of VEGF expression in isolated rat pulmonary artery ring, short-term (acute) hypoxia", "assay_type": "cell-based", "settings": "isolated pulmonary artery", "how_it_was_run": "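Isolated rat (male Wistar) pulmonary artery kept under normoxia (20% O2) or hypoxia (1% O2) at 37° C. for 24 hrs. Protein extracted, resolved on 10% SDS-PAGE ([…]), blotted to PVDF, probed with specific antibodies and ECL-detected, β-actin as loading control.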"}, "hypoxic rats": {"test_system": "hypoxic rats", "experiment": "Hemodynamics of rats with hypoxic PAH, chronic hypoxia 21 days", "assay_type": "in vivo, rat", "settings": "5 mg/kg/day, p.o.", "source_text": "Int J Immunopathol Pharmacol 24:925, 2011). The heart weight and body weight ratio (HW/BW) of the rats treated with one of […] complex, Sildenafil or Sildenafil RX complex each measured on the 21st hypoxic day. All animal care and the experimental protocols of this study were approved by the Animal Care and Use Committee of the Kaohsiung Medical University. Male Wistar rats (200-250 g), provided by the National Laboratory Animal Breeding and Research Center (Taipei, Taiwan), were housed under constant temperature and controlled illumination. Food and water were available ad libitum. Normoxic rats were housed in room temperature air at normal atmospheric pressure (760 mm Hg). […] After completion of the exposure, tissues were prepared as indicated for contraction measurements, Western blot analysis, RNA extraction, or morphological analysis. […] Their breathing was normal and their body temperature was maintained at 37° C. […] The animals were then sacrificed by the administration of an overdose of urethane."}, "eNOS": {"test_system": "eNOS", "experiment": "Immunohistochemistry of eNOS in pulmonary artery wall after long-term hypoxia", "assay_type": "in vivo, rat", "protocol": "For histological analysis, the rat pulmonary right lung sections or pulmonary artery were fixed in 4% formaldehyde for 1 hour at 4° C. After washing with phosphate buffer saline (PBS), they were sent for paraffin-embedded serial-sections. Serial cross-sections 7 μm thick were obtained from the cross-section of each pulmonary artery. Tissue sections were deparaffinized and rehydrated in an ethanol series. After tissue rehydration, endogenous peroxidase activity was quenched with 3% hydrogen peroxide for 30 minutes, and the sections were gently washed in PBS. Non-specific binding was blocked by incubation with 1% nonimmune bovine serum albumin (BSA) in PBS for 30 minutes at room temperature.\nThe tissue sections were incubated for 1 hour at room temperature with antibody against VEGF (ab1442, Millipore) or against eNOS (ab5589, Abcam) diluted 1:200 in PBS with 1% BSA. After being washed with PBS, the sections were incubated for 1 hour at room temperature with biotinylated goat antibody against rabbit (Dako, E-0432) and diluted 1:200 in PBS for 30 minutes at room temperature. The reaction was visualized by the addition of 3-3-diaminobenzidine (DAB) in a working solution of DAB substrate kit for peroxidase (vector lab, SK-4100) at room temperature for 5 minutes. The sections were washed in PBS for 10 minutes between each step, and counterstained with haematoxylin. […]"}}, "data": [{"molecule": "Cn1c(=O)c2c(ncn2CCN2CCN(c3ccccc3Cl)CC2)n(C)c1=O.O=C1O[C@H]([C@@H](O)CO)C(O)=C1O", "note": "[SPAAX-1 ascorbate complex, 7-[2-[4-(2-chlorobenzene)piperazinyl]ethyl]-1,3-dimethylxanthine.ascorbic acid]", "values": [{"measurement": "ROCKII expression in lung tissue", "setting": "ROCK II", "result": "50.32±7.9", "unit": "%"}, {"measurement": "PKG expression in lung tissue", "setting": "PKG", "result": "85.0±12.9", "unit": "%"}, {"measurement": "VEGF in acute hypoxia", "setting": "VEGF", "result": "inhibited"}, {"measurement": "BW (body weight)", "setting": "hypoxic rats", "result": "28.8 ± 7.9", "unit": "g"}, {"measurement": "MPAP (mean pulmonary arterial pressure)", "setting": "hypoxic rats; normoxia 12.9 ± 0.9, hypoxia 26.5 ± 0.6", "result": "16.9±1.1", "unit": "mmHg"}, {"measurement": "eNOS immunostaining reactivity of pulmonary artery", "setting": "eNOS", "result": "restored the decay of eNOS"}]}]}
